The target in data set [1] is T1, Recombinant human p38α (Homo sapiens, UniProt Q16539).
T1 construct: His; made in house
Briefly: Fluorescence anisotropy kinase binding assay (standard and low volume). An excerpt: Fluorescence Anisotropy Kinase Binding Assay—Standard Volume
The concentration of kinase enzyme should preferably be ≧2×Kf. The concentration of fluorescent ligand required will depend on the instrumentation used, and the fluorescent and physicochemical properties. The concentration used must be lower than the concentration of kinase enzyme, and preferably less than half the kinase enzyme concentration.
The fluorescent ligand is the following compound:
which is derived from 5-[2-(4-aminomethylphenyl)-5-pyridin-4-yl-1H-imidazol-4-yl]-2-chlorophenol and rhodamine green.
Recombinant human p38α was expressed as a GST-tagged protein. To activate this protein, 3.5 μM unactivated p38α was incubated in 50 mM Tris-HCl pH 7.5, 0.1 mM EGTA, 0.1% 2-mercaptoethanol, 0.1 mM sodium vanadate, 10 mM MgAc, 0.1 mM ATP with 200 nM MBP-MKK6 DD at 30 degrees for 30 mins. Following activation p38α was re-purified and the activity assessed using a standard filter-binding assay.
Protocol: All components are dissolved in buffer of composition 62.5 mM HEPES, pH 7.5, 1.25 mM CHAPS, 1 mM DTT, 12.5 mM MgCl2 with final concentrations of 12 nM p38α and 5 nM fluorescent ligand. 30 μl of this reaction mixture is added to wells containing 1 μl of various concentrations of test compound (0.28 nM-16.6 μM final) or DMSO vehicle (3% final) in NUNC 384 well black microtitre plate and equilibrated for 30-60 mins at room temperature. Fluorescence anisotropy is read in Molecular Devices Acquest (excitation 485 nm/emission 535 nm).
Definitions: Ki=dissociation constant for inhibitor binding • Kf=dissociation constant for fluorescent ligand binding
Fluorescence Anisotropy Kinase Binding Low Volume Assay
The concentration of kinase enzyme should preferably be 2×Kf. The concentration of fluorescent ligand required will depend on the instrumentation used, and the fluorescent and physicochemical properties. The concentration used must be lower than the concentration of kinase enzyme, and preferably less than half the kinase enzyme concentration.
Protocol: All components are dissolved in buffer of composition 62.5 mM HEPES, pH 7.5, 1.25 mM CHAPS, 1 mM DTT, 12.5 mM MgCl2 with final concentrations of 12 nM p38α and 5 nM fluorescent ligand. 30 μl of this reaction mixture is added to wells containing 0.1 μl of various concentrations of test compound (0.02 nM-25 μM final) or DMSO vehicle (1.7% final) in Greiner low volume 384 well black microtitre plate and equilibrated for 30-60 mins at room temperature. Fluorescence anisotropy is read in Molecular Devices Acquest (excitation 485 nm/emission 535 nm).
It is noted that there are two assay formats shown above for the Fluorescence anisotropy kinase binding assay. The only difference between these two assays is the volume used and the plate type. […] The results described herein may have been performed in either assay format and are not differentiated as to which.
(Fluorescence polarisation rises when a labelled molecule tumbles more slowly, as on binding a larger partner.)

Data set [2] deals with TNF-stimulated IL8 production by human neutrophils. Briefly: TNF-stimulated IL-8 production from human neutrophils.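 Note: IL-8 in cell-free supernatant quantified by sandwich ELISA, inhibition calculated against a compound-free control.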 Format: cell-based. Particulars: Neutrophil, TNF 100 ng/ml, about 20 hrs, bounds reflect the top concentration screened, for 202(c) and 120 a range over multiple runs with ends given as 'greater than'.
Protocol: TNF-Stimulated IL-8 Production from Human Neutrophils
The effect of test compounds on TNF-stimulated IL8 production by human neutrophils is measured as follows. Neutrophils are prepared from blood obtained from consenting donors, using standard methods. Blood is collected in heparinized syringes and layered over histopaque (30 ml/20 ml). Following centrifugation, the red cell pellet is resuspended in PBS and purified over a dextran gradient. […] Cells are added (0.5-1 ml) to 48 well plates already containing compound at 1000× final concentration in neat DMSO or 10% DMSO in RPMI1640 with 10% FBS. TNF (final concentration 100 ng/ml) is used as the stimulus. Cells incubated for approximately 20 hrs at 37° C., 5% CO2. Levels of IL-8 in the cell free supernatant are determined by sandwich ELISA, and inhibition relative to a control with DMPO but no compound is calculated.
Data set [3] deals with influx of neutrophils to the lung in LPS-challenged rats. Briefly: Rat LPS neutrophilia model. Type of data set: in vivo. The settings on record: LPS aerosol, intratracheal dosing, in at least one of the range of conditions tested, significance p<0.05. Summed up:
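Compound given intratracheally (200 ul suspension or dry powder via microsprayer) to isoflurane-anesthetized rats 15 min–24 h before 15 min LPS aerosol (100 ug/ml). Lavage 4 h post-challenge; neutrophils from differential counts. % inhibition versus no-compound controls at a given concentration and pretreat time.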

For data set [4], the target named is T1, Recombinant human p38α. The data set can be described thus: Time-resolved fluorescence resonance energy transfer (TR-FRET) kinase assay (standard and low volume). Format: biochemical. Particulars: for 97(b) and 115 a broad range over multiple runs, lower end less than 4.6; read-out: pIC50, TR-FRET p38α kinase assay (converted). Here is the method: Time-Resolved Fluorescence Resonance Energy Transfer Linase Standard Assay
Recombinant human p38α was expressed as a His-tagged protein. To activate this protein, 3 μM unactivated p38α was incubated in 200 mM Hepes pH 7.4, 625 mM NaCl, 1 mM DTT with 27 nM active MKK6 (Upstate), 1 mM ATP and 10 mM MgCl2 The activity of the MKK6-activated p38α was assessed using a time-resolved fluorescence resonance energy transfer (TR-FRET) assay.
Biotinylated-GST-ATF2 (residues 19-96, 400 nM final), ATP ([…]) and MgCl2 (5 mM final) in assay buffer (40 mM HEPES pH 7.4, 1 mM DTT) were added to wells containing 1 ul of various concentrations of compound or DMSO vehicle (3% final) in NUNC 384 well black plate. The reaction was initiated by the addition of MKK6-activated p38 (100 pM final) to give a total volume of 30 ul. The reaction was incubated for 120 minutes at room temperature, then terminated by the addition of 15 μl of 100 mM EDTA pH 7.4. Detection reagent (15 μl) in buffer (100 mM HEPES pH 7.4, 150 mM NaCl, 0.1% w/v BSA, 1 mM DTT) containing antiphosphothreonine-ATF2-71 polyclonal antibody (Cell Signalling Technology, Beverly Mass., USA) labelled with W-1024 europium chelate (Wallac O Y, Turku, Finland), and APC-labelled streptavidin (Prozyme, San Leandro, Calif., USA) was added and the reaction was further incubated for 60 minutes at room temperature. The degree of phosphorylation of GST-ATF2 was measured using a Packard Discovery plate reader (Perkin-Elmer Life Sciences, Pangbourne, UK) as a ratio of specific 665 nm energy transfer signal to reference europium 620 nm signal.
Time-Resolved Fluorescence Resonance Energy Transfer Kinase Low Volume Assay
Recombinant human p38α was expressed as a His-tagged protein. To activate this protein, 3 μM unactivated p38α was incubated in 200 mM Hepes pH7.4, 625 mM NaCl, 1 mM DTT with 27 nM active MKK6 (Upstate), 1 mM ATP and 10 mM MgCl2 The activity of the MKK6-activated p38α was assessed using a time-resolved fluorescence resonance energy transfer (TR-FRET) assay.
Biotinylated-GST-ATF2 (residues 19-96, 400 nM final), ATP (125 μM final) and MgCl2 (5 mM final) in assay buffer (40 mM HEPES pH 7.4, 1 mM DTT) were added to wells containing 0.1 μl of various concentrations of compound or DMSO vehicle (1.7% final) in Greiner low volume 384 well black plate. The reaction was initiated by the addition of MKK6-activated p38α (100 pM final) to give a total volume of 6 μl. […] The degree of phosphorylation of GST-ATF2 was measured using a BMG Rubystar plate reader (BMG, UK) as a ratio of specific 665 nm energy transfer signal to reference europium 620 nm signal.
It is noted that there are two assay formats shown above for the Time-resolved fluorescence resonance energy transfer kinase assay. […]
For orientation: TR-FRET usually uses a lanthanide donor and a delayed reading to cut background.

The mark [5] stands for this setting: 12 nM p38α, 5 nM fluorescent ligand, 5.1 to 8.4 is stated collectively for the listed examples, read-out: pIC50, fluorescence anisotropy kinase binding assay (converted).
Where [6] appears, read: no IC50 at a concentration of less than 16 uM, read-out: IC50, fluorescence anisotropy kinase binding assay.

Broadly, the melting point is the temperature of the solid-liquid transition.

SMILES strings stand for the structures. Bounds are passed on as bounds.

T1 sequence (Q16539 whole entry): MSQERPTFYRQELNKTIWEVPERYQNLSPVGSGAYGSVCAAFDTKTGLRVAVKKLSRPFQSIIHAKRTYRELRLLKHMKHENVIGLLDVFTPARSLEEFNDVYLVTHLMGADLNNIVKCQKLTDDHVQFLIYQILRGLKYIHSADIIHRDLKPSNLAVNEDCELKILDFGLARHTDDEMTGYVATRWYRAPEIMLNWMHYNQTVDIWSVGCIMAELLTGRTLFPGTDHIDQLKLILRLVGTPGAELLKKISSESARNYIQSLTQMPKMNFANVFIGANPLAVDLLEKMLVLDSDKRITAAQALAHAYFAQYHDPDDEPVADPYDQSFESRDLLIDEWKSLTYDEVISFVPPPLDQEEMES

In the case of `Cc1ccc(C(=O)NCc2ccccc2)cc1-c1nc(NCc2ncc[nH]2)nc2c1ccc(=O)n2-c1c(F)cccc1F` [116(c), 3-{8-(2,6-difluorophenyl)-2-[(1H-imidazol-2-ylmethyl)amino]-7-oxo-7,8-dihydropyrido[2,3-d]pyrimidin-4-yl}-4-methyl-N-(phenylmethyl)benzamide], the melting point is 185 to 190 °C (dec.).

Regarding `CSc1nc(Cl)c2ccc(=O)n(-c3c(F)cccc3F)c2n1` [Example 1(a), 4-chloro-8-(2,6-difluorophenyl)-2-(methylthio)pyrido[2,3-d]pyrimidin-7(8H)-one], the IC50 at Recombinant human p38α [1] (setting [5]) was over 15.8 µM; on Recombinant human p38α [1] (setting [6]), at least 16 µM; in data set [2], over 0.1 µM.

`Cc1ccc(NC(=O)c2cccs2)cc1-c1nc(NC2CC(C)(C)NC(C)(C)C2)nc2c1ccc(=O)n2-c1c(F)cccc1F` [Example 9, N-(3-{8-(2,6-difluorophenyl)-7-oxo-2-[(2,2,6,6-tetramethyl-4-piperidinyl)amino]-7,8-dihydropyrido[2,3-d]pyrimidin-4-yl}-4-methylphenyl)-2-thiophenecarboxamide]: the values for the IC50 (on Recombinant human p38α [1] (setting [5]); at Recombinant human p38α [1] (setting [6]); in data set [2]) were over 15.8 µM, at least 16 µM and over 0.1 µM, respectively.

The compound `CCCNCCNc1nc(-c2cc(C(=O)NC3CC3)ccc2C)c2ccc(=O)n(-c3c(F)cccc3F)c2n1` [Example 24, N-cyclopropyl-3-(8-(2,6-difluorophenyl)-7-oxo-2-{[2-(propylamino)ethyl]amino}-7,8-dihydropyrido[2,3-d]pyrimidin-4-yl)-4-methylbenzamide] showed a melting point of 120 to 134 °C. In data set [3], the inhibition of neutrophilia entry is “statistically nonsignificant inhibition”.

`Cc1ccc(C(=O)NC2CC2)cc1-c1nc(NCCN(C)C)nc2c1ccc(=O)n2-c1c(F)cccc1F` [Example 25] registered a melting point of 214.7 to 217.5 °C. For the same compound, in data set [3], the inhibition of neutrophilia entry is “statistically nonsignificant inhibition”.

As for `Cc1ccc(NC(=O)c2ccsc2)cc1-c1nc(N2CCC(N)CC2)nc2c1ccc(=O)n2-c1c(F)cccc1F` [Example 32, N-{3-[2-(4-amino-1-piperidinyl)-8-(2,6-difluorophenyl)-7-oxo-7,8-dihydropyrido[2,3-d]pyrimidin-4-yl]-4-methylphenyl}-3-thiophenecarboxamide], the melting point was in the range of 183.8 to 187.9 °C. Also, the inhibition of neutrophilia entry in data set [3] is on record as “statistically nonsignificant inhibition”.

For the compound `O=C(O)c1cccc(-c2nc(NC(CO)CO)nc3c2ccc(=O)n3-c2ccc(F)cc2F)c1` [Example 96(d), 3-(8-(2,4-difluorophenyl)-2-{[2-hydroxy-1-(hydroxymethyl)ethyl]amino}-7-oxo-7,8-dihydropyrido[2,3-d]pyrimidin-4-yl)benzoic acid], the IC50 was over 15.8 µM on Recombinant human p38α [1] (setting [5]) and at least 16 µM at Recombinant human p38α [1] (setting [6]).

Regarding `CCCNC(=O)c1ccc(C)c(-c2nc(N(C)CCCN(C)C)nc3c2ccc(=O)n3-c2c(F)cccc2F)c1` [Example 104, 3-{8-(2,6-difluorophenyl)-2-[[3-(dimethylamino)propyl](methyl)amino]-7-oxo-7,8-dihydropyrido[2,3-d]pyrimidin-4-yl}-4-methyl-N-propylbenzamide], the melting point was in the range of 104 to 109 °C. In data set [3], the inhibition of neutrophilia entry was “statistically significant inhibition”.

Turning to `CCCNC(=O)c1ccc(C)c(-c2nc(NCCN(C)C)nc3c2ccc(=O)n3-c2c(F)cccc2F)c1` [Example 105, 3-(8-(2,6-difluorophenyl)-2-{[2-(dimethylamino)ethyl]amino}-7-oxo-7,8-dihydropyrido[2,3-d]pyrimidin-4-yl)-4-methyl-N-propylbenzamide], the melting point was in the range of 139 to 142 °C. The inhibition of neutrophilia entry in data set [3] was “statistically significant inhibition”.

`CCCNC(=O)c1ccc(C)c(-c2nc(NCCN(C)C(=O)OC(C)(C)C)nc3c2ccc(=O)n3-c2c(F)cccc2F)c1` [Example 106, 1,1-dimethylethyl{2-[(8-(2,6-difluorophenyl)-4-{2-methyl-5-[(propylamino)carbonyl]phenyl}-7-oxo-7,8-dihydropyrido[2,3-d]pyrimidin-2-yl)amino]ethyl}methylcarbamate] showed a melting point of 115 to 118 °C.

With `Cc1ccc(C(=O)Nc2ccc(F)cc2)cc1-c1nc(N(C)CCCN(C)C)nc2c1ccc(=O)n2-c1c(F)cccc1F` [Example 115, 3-{8-(2,6-difluorophenyl)-2-[[3-(dimethylamino)propyl](methyl)amino]-7-oxo-7,8-dihydropyrido[2,3-d]pyrimidin-4-yl}-N-(4-fluorophenyl)-4-methylbenzamide], in data set [3], the inhibition of neutrophilia entry is recorded as “statistically nonsignificant inhibition”. Also, the IC50 at Recombinant human p38α [4] is at least 0.0398 µM.

For the origin of these results see US20100144755A1 (Glaxo Group Limited, priority 2006, published 2010).
